The results in this text go back to patent publication US4195172A.

≈ marks a conversion by molar mass, not a printed value. Where “and” joins values, the source holds several entries; their conditions need not be identical. Equal values may be shown once. Where a name gives a salt, the structure may show the parent alone.

The nature of one assay: IC50 of products of the examples and original antibiotics. The class given is cell-based. Conditions: test organism not given.
As for `C[C@@H]1[C@H](O)[C@@H](C)/C=C/C=C/C=C/C=C/C=C/C=C/C=C/[C@H](O[C@@H]2O[C@H](C)[C@@H](O)[C@H](NC3O[C@H](CO)[C@@H](O)[C@H](O)[C@H]3O)[C@@H]2O)C[C@@H]2O[C@](O)(C[C@@H](O)C[C@@H](O)[C@H](O)CC[C@@H](O)C[C@@H](O)CC(=O)O[C@H]1C)C[C@H](O)[C@H]2C(=O)O` (some centres unmarked) [Example I, sodium salt of the N-glycosyl derivative of the amphotericin B], the half-maximal inhibitory concentration (IC50) (usually the concentration needed to halve the response being measured) is 0.05 µg/mL.
With `C[C@@H]1[C@H](O)[C@@H](C)/C=C/C=C/C=C/C=C/C=C/C=C/C=C/[C@H](O[C@@H]2O[C@H](C)[C@@H](O)[C@H](NC3O[C@H](CO)[C@@H](O)[C@H](O)[C@H]3O)[C@@H]2O)C[C@@H]2O[C@](O)(C[C@@H](O)C[C@@H](O)[C@H](O)CC[C@@H](O)C[C@@H](O)CC(=O)O[C@H]1C)C[C@H](O)[C@H]2C(=O)O` (some centres unmarked) [II, tris salt of the N-glycosyl derivative of amphotericin B], the IC50 was found to be 0.6 µg/mL.
Compound `C[C@@H]1[C@H](O)[C@@H](C)/C=C/C=C/C=C/C=C/C=C/C=C/C=C/[C@H](O[C@@H]2O[C@H](C)[C@@H](O)[C@H](NC3O[C@H](CO)[C@@H](O)[C@H](O)[C@H]3O)[C@@H]2O)C[C@@H]2O[C@](O)(C[C@@H](O)C[C@@H](O)[C@H](O)CC[C@@H](O)C[C@@H](O)CC(=O)O[C@H]1C)C[C@H](O)[C@H]2C(=O)O` (some centres unmarked) [VIII, N-methylglucamine salt of N-glycosyl derivative of amphotericin B] had a 50% inhibitory concentration (IC50) of 0.1 µg/mL.
Same read-out and setting: with polifungin [reference compound] the figure was 0.15 µg/mL and 0.16 µg/mL.

The same assay, now with this note: test organism not given; read-out: IC50.
With `C[C@@H]1[C@H](O)[C@@H](C)/C=C/C=C/CC/C=C/C=C/C=C/C=C/[C@H](O[C@@H]2O[C@H](C)[C@@H](O)[C@H](NC3O[C@H](CO)[C@@H](O)[C@H](O)[C@H]3O)[C@@H]2O)C[C@@H]2O[C@](O)(C[C@@H](O)[C@H](O)CC[C@@H](O)C[C@@H](O)C[C@@H](O)CC(=O)O[C@H]1C)C[C@H](O)[C@H]2C(=O)O` (some centres unmarked) [VII, N-methylglucamine salt of the N-glycosyl derivative of nystatin], the IC50 was found to be 0.45 µg/mL.
As to `C[C@@H]1[C@H](O)[C@@H](C)/C=C/C=C/CC/C=C/C=C/C=C/C=C/[C@H](O[C@@H]2O[C@H](C)[C@@H](O)[C@H](NC3O[C@H](CO)[C@H](O)[C@H](O)[C@H]3O)[C@@H]2O)C[C@@H]2O[C@](O)(C[C@@H](O)[C@H](O)CC[C@@H](O)C[C@@H](O)C[C@@H](O)CC(=O)O[C@H]1C)C[C@H](O)[C@H]2C(=O)O` (some centres unmarked) [X, N-methylglucamine salt of N-glycosyl nystatin], the IC50 was found to be 0.45 µg/mL.
On to `C[C@@H]1[C@H](O)[C@@H](C)/C=C/C=C/CC/C=C/C=C/C=C/C=C/[C@H](O[C@@H]2O[C@H](C)[C@@H](O)[C@H](NC3O[C@H](CO)[C@@H](O[C@H]4O[C@H](CO)[C@@H](O)[C@H](O)[C@H]4O)[C@H](O)[C@H]3O)[C@@H]2O)C[C@@H]2O[C@](O)(C[C@@H](O)[C@H](O)CC[C@@H](O)C[C@@H](O)C[C@@H](O)CC(=O)O[C@H]1C)C[C@H](O)[C@H]2C(=O)O` (some centres unmarked) [XI, N-methylglucamine salt of N-glycosyl nystatin], for which the IC50 turned out to be 0.45 µg/mL.
Take `C[C@@H]1[C@H](O)[C@@H](C)/C=C/C=C/CC/C=C/C=C/C=C/C=C/[C@H](O[C@@H]2O[C@H](C)[C@@H](O)[C@H](N)[C@@H]2O)C[C@@H]2O[C@](O)(C[C@@H](O)[C@H](O)CC[C@@H](O)C[C@@H](O)C[C@@H](O)CC(=O)O[C@H]1C)C[C@H](O)[C@H]2C(=O)O` [nystatin, reference compound]: the concentration for half-maximal inhibition (IC50) stood at 0.18 µg/mL (≈ 0.194 µM).
